Data on one molecule can be found in ChEMBL document CHEMBL6074671, “Discovery of Pyridine-2-Carboxamides Derivatives as Potent and Selective HPK1 Inhibitors for the Treatment of Cancer” (J Med Chem, 2024).

As usually defined, the IC50 is the point on the concentration scale where inhibition reaches its midpoint. A high value points to weaker potency. By EC50 is commonly meant the midpoint of the concentration-response curve. High values mean weaker potency, low ones greater potency. As a reminder, the Vd is the apparent volume that relates the amount in the body to the concentration in plasma or blood. A higher Vd goes with extensive tissue distribution.

Data set [1] addresses Mitogen-activated protein kinase kinase kinase kinase 4 (Homo sapiens, UniProt O95819). As to the kind of experiment: Inhibition of catalytic domain N-terminal GST tagged human MAP4K4 (1 to 328 residues) expressed in insect Sf21 cells.
In another data set the target is Misshapen-like kinase 1 (Homo sapiens, UniProt Q8N4C8). As to the kind of experiment: Inhibition of catalytic domain human GST-tagged N-terminal MAP4K6 (1 to 314 residues) expressed in insect Sf21 cells.
The target in data set [2] is Tyrosine-protein kinase Fyn (Homo sapiens, UniProt P06241). Put plainly: Inhibition of FYN (unknown origin).
The target in data set [3] is Tyrosine-protein kinase Lck (Homo sapiens, UniProt P06239). Put plainly: Inhibition of LCK (unknown origin).
The target of data set [4] is Tyrosine-protein kinase JAK1 (Homo sapiens, UniProt P23458). As to the kind of experiment: Inhibition of JAK1 (unknown origin).
In data set [5] the target is Tyrosine-protein kinase JAK3 (Homo sapiens, UniProt P52333). Put plainly: Inhibition of JAK3 (unknown origin).
Sequence of Tyrosine-protein kinase JAK3 (P52333 whole entry): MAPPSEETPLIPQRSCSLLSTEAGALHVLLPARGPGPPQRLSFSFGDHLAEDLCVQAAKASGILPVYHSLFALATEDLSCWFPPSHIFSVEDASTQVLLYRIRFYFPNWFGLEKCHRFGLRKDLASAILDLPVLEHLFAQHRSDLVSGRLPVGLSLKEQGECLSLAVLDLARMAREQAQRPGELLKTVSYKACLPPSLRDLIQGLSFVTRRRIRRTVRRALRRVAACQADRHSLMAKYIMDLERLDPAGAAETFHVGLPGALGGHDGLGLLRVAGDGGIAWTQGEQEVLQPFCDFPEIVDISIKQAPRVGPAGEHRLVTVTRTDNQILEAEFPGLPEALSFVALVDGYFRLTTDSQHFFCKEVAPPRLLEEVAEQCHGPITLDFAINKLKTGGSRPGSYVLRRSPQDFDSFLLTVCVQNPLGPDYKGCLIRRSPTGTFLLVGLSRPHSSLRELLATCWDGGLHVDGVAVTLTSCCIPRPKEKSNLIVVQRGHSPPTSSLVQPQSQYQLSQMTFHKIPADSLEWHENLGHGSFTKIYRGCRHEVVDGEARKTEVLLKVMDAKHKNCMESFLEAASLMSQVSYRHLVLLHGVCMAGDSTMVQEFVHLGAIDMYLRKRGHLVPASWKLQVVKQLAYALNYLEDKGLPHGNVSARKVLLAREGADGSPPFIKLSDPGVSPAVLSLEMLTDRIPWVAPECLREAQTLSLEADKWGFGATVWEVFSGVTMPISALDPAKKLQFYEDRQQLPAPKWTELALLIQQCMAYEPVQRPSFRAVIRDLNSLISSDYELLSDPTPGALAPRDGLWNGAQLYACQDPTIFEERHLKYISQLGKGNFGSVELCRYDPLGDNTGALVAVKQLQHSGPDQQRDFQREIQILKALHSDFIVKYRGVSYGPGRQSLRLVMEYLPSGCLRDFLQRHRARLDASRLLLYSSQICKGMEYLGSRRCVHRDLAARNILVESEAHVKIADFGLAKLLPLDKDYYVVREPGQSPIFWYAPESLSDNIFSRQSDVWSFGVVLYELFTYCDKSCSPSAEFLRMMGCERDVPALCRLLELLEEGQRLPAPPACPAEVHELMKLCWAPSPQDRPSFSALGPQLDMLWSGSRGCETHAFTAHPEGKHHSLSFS
Data set [6] deals with Mitogen-activated protein kinase kinase kinase 7 (Homo sapiens, UniProt O43318). As to the kind of experiment: Inhibition of TAK1 (unknown origin).
Sequence of Mitogen-activated protein kinase kinase kinase 7 (O43318 whole entry): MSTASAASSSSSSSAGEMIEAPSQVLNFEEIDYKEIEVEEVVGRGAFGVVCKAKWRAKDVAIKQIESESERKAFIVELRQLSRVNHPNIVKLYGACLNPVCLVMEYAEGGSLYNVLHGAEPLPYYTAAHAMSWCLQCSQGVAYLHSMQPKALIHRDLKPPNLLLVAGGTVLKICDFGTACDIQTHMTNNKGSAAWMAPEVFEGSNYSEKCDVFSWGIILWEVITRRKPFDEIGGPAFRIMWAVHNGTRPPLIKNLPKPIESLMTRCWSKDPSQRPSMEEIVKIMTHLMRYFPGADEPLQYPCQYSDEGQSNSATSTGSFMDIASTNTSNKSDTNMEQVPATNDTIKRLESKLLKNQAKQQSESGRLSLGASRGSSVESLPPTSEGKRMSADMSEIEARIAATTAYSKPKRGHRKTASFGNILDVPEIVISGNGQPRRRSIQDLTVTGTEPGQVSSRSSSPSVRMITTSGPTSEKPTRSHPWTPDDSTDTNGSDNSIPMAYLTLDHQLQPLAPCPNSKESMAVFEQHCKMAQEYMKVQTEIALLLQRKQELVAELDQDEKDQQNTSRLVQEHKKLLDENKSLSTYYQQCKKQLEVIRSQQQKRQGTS
Data set [7] concerns the target Tyrosine-protein kinase Blk (Homo sapiens, UniProt P51451). Put plainly: Inhibition of BLK (unknown origin).
Data set [8] in a line: Toxicity in Balb/c mouse assessed as effect on body weight loss at 1.5 to 12 mg/kg, po BID measured after 15 days. It is filed as organism-based. Conditions: in vivo, 360 h, dose 1.5-12 mg/kg, time 15 day.
The nature of data set [9]: Toxicity in Balb/c mouse assessed as effect on body weight loss at 1.5 to 12 mg/kg, po BID measured after 15 days in presence of anti-PD1. As to conditions: in vivo, 360 h, dose 1.5-12 mg/kg, time 15 day. It is filed as organism-based.
The nature of data set [10]: Toxicity in C57BL/6 mouse implanted with mouse MC38 cells assessed as effect on body weight loss at low dose, po BID measured after 12 days. The data set is classed as organism-based. As to conditions: in vivo, 288 h, time 12 day.
A short description of data set [11]: Toxicity in C57BL/6 mouse implanted with mouse MC38 cells assessed as effect on body weight loss at low dose, po BID measured after 12 days in presence of anti-PD-1. Conditions: in vivo, 288 h, time 12 day. The data set is classed as organism-based.
The nature of data set [12]: Toxicity in C57BL/6 mouse implanted with mouse MC38 cells assessed as effect on body weight loss at high dose, po BID measured after 12 days in presence of anti-PD-1. It is filed as organism-based. As to conditions: in vivo, 288 h, time 12 day.
A short description of data set [13]: Toxicity in C57BL/6 mouse implanted with mouse MC38 cells assessed as increase in survival at high dose, po BID measured after 12 days. The data set is classed as organism-based. As to conditions: in vivo, 288 h, time 12 day.
The target of data set [14] is Voltage-gated inwardly rectifying potassium channel KCNH2 (Homo sapiens, UniProt Q12809). As to the kind of experiment: Inhibition of human ERG expressed in CHO cells. It is filed as toxicity, cell-based.
Sequence of Voltage-gated inwardly rectifying potassium channel KCNH2 (Q12809 whole entry): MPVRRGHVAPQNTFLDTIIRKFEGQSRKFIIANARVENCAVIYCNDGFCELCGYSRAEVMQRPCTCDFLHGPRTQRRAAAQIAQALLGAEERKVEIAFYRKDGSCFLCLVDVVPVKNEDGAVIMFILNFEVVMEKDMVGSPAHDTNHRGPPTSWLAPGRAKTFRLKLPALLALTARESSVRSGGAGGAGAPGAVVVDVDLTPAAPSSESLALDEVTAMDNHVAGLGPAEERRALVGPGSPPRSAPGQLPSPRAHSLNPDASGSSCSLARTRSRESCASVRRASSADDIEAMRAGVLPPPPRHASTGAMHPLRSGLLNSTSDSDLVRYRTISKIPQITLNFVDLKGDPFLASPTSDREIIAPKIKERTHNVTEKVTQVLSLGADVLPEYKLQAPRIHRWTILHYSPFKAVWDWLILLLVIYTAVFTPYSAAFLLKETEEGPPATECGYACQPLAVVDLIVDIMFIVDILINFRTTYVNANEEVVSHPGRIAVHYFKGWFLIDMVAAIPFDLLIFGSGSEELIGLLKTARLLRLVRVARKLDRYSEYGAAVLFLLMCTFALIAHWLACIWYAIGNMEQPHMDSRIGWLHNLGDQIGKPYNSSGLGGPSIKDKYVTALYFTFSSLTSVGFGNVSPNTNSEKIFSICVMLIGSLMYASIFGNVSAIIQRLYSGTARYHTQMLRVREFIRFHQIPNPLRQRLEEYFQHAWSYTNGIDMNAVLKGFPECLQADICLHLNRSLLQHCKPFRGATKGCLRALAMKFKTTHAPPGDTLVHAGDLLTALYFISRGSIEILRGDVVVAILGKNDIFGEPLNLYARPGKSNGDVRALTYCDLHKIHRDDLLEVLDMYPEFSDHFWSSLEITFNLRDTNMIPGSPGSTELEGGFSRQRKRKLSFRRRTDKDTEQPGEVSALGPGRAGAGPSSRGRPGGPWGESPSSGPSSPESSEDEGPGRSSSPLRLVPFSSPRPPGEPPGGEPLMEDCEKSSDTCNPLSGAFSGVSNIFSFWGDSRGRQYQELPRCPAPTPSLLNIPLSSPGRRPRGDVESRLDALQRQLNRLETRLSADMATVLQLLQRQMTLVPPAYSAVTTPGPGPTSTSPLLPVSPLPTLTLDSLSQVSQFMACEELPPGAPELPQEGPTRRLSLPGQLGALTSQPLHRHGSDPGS
A short description of data set [15]: Effect on IFN-gamma secretion in human T cells by ELISA method. The data set is classed as functional, cell-based. Conditions: T-cell.
For data set [16] the following is noted: cynomolgus monkey, in vivo, po, 2 mg/kg.
Another data set is described as follows: in vivo. As to conditions: Beagle, dog, iv, 1 mg/kg.

Sequence of Mitogen-activated protein kinase kinase kinase kinase 4 (O95819 whole entry, the tested form may be a part): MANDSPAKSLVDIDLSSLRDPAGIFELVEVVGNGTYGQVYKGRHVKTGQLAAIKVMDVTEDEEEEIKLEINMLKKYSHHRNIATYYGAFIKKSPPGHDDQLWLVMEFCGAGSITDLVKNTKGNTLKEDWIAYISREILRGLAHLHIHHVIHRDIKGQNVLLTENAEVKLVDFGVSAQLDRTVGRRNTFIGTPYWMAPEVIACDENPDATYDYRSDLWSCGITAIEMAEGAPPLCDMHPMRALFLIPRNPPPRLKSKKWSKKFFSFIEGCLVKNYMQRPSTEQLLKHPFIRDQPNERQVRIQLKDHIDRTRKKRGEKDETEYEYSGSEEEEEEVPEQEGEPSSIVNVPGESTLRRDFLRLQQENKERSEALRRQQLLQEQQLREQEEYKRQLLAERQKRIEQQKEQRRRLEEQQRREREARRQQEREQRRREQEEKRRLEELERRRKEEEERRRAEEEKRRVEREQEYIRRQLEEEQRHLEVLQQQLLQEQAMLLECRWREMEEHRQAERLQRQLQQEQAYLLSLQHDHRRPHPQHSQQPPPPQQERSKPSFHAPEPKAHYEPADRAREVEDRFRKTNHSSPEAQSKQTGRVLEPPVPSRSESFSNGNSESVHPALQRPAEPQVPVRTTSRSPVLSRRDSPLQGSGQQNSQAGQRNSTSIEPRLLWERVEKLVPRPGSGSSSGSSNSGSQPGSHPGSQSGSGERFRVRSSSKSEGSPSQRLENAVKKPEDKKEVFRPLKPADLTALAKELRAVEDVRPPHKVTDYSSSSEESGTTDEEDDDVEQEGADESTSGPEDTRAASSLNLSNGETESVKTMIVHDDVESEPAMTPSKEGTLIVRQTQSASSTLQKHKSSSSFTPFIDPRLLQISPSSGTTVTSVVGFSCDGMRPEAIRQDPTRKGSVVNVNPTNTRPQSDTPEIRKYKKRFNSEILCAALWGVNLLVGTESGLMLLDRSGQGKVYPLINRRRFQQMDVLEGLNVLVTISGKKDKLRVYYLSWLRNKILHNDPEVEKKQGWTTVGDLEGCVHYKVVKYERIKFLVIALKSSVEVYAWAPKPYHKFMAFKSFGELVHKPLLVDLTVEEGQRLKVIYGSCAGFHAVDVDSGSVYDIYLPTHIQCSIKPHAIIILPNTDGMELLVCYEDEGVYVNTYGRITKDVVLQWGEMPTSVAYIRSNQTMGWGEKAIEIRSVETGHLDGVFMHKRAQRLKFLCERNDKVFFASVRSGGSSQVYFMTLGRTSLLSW
Sequence of Tyrosine-protein kinase Blk (P51451 whole entry): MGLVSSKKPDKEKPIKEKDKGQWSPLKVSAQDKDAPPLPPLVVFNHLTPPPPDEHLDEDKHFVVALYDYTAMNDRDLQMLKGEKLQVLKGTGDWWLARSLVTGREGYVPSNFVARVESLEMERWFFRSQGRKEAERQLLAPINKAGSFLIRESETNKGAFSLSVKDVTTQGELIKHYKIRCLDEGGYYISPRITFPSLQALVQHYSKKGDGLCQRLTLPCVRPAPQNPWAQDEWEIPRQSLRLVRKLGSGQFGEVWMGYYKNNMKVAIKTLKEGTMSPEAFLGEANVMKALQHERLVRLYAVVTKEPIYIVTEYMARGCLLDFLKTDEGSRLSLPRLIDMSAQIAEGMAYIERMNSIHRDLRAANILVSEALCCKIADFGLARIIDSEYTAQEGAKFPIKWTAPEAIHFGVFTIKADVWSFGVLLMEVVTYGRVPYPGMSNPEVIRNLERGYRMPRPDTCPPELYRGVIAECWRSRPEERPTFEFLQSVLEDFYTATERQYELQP
Description for in vivo: Volume of distribution in Beagle dog at 1 mg/kg, iv

On to `COc1cc(Nc2ccc3c(n2)CN(C)C32CCN(C3COC3)CC2)c(C(N)=O)nc1-c1cccc2c1ncn2C`, for which the IC50 is 377 nM in [1]; 116 nM against Misshapen-like kinase 1; > 10000 nM in data set [2]; 521 nM in data set [3]; > 10000 nM in data set [4]; > 10000 nM in data set [5]. In addition, the half-maximal inhibitory concentration (IC50) in data set [6] was > 10000 nM; in [7], 1890 nM; in [14] it was > 10000 nM. Also, the Activity entry in data set [8], in data set [9], in [10], in data set [11], in data set [12] and in [13] was “Non-toxic” in each case. This molecule gave an EC50 in [15] of 49.2 nM. In [16], this molecule displayed an AUC/dose of 560.5 ng·h/mL. In the data set “in vivo”, the Vd is 5.58 L/kg.
